# Data: ChEMBL document CHEMBL6182924, “Discovery of a Novel and Potent MET Transcription Inhibitor Targeting Promoter G-Quadruplex for the Treatment of NSCLC” (J Med Chem, 2025)
# pIC50: −log10 of the molar value. The source made the active and inactive calls. The rule behind the calls is not given here.
# Columns and labels:
# [1] = test system: NCI-H1975; test: Induction of apoptosis in human NCI-H1975 cells assessed as late apoptotic cells at 0.5 uM incubated for 24 hrs by Annexin V-FITC/PI staining based flow cytometry analysis (reference value: 2.27 %); type: functional
# [2] = test system: NCI-H1975; test: Antiproliferative activity against human NCI-H1975 cells incubated for 3 days by CCK-8 assay; type: functional, cell-based; settings: NCI-H1975, 72 h
# [3] = test system: NCI-H1975; test: Induction of apoptosis in human NCI-H1975 cells assessed as viable cells at 1 uM incubated for 24 hrs by Annexin V-FITC/PI staining based flow cytometry analysis (reference value: 90.1 %); type: functional; settings: read-out: Activity
# [4] = test system: NCI-H1975; test: Induction of apoptosis in human NCI-H1975 cells assessed as necrotic cells at 2 uM incubated for 24 hrs by Annexin V-FITC/PI staining based flow cytometry analysis (reference value: 7.33 %); type: functional
# [5] = test system: A549; test: Inhibition of cell invasion in human A549 cells incubated for 12 hrs; type: functional, cell-based; settings: dose 0.5-2 µM
# [6] = test system: NCI-H1975; test: Induction of apoptosis in human NCI-H1975 cells assessed as viable cells at 2 uM incubated for 24 hrs by Annexin V-FITC/PI staining based flow cytometry analysis (reference value: 90.1 %); type: functional; settings: read-out: Activity
# [7] = test system: A549; test: Antiproliferative activity against human A549 cells assessed as inhibition of cell growth incubated for 3 days by CCK-8 assay; type: functional, cell-based; settings: time 3.0 day
# [8] = Toxicity in BALB/c mouse xenografted with human A549 cells assessed as lung damage at 40 mg/kg, po administered once a day and measured after 20 days by H and E staining based analysis; type: organism-based; settings: in vivo, 480 h, time 20 day
# [9] = test system: A549; test: Induction of cell cycle arrest in human A549 cells assessed as accumulation of cells at G1 phase at 2 uM measured for 24 hrs by PI/Rnase staining based flow cytometry (reference value: 75.2 %); type: functional
# [10] = test system: A549; test: Downregulation of c-Met expression in human A549 cells incubated for 72 hrs by Western blot analysis; type: functional, cell-based; settings: dose <= 1000.0 nM
# [11] = test system: NCI-H1975; test: Induction of cell cycle arrest in human NCI-H1975 cells assessed as accumulation of cells at G1 phase at 2 uM measured for 24 hrs by PI/Rnase staining based flow cytometry (reference value: 79.2 %); type: functional
# [12] = test system: A549; test: Induction of cell cycle arrest in human A549 cells assessed as accumulation of cells at G1 phase at 1 uM measured for 24 hrs by PI/Rnase staining based flow cytometry (reference value: 75.2 %); type: functional
# [13] = Acute toxicity in Sprague-Dawley rat assessed as kidney damage at 500 to 2000 mg/kg, po measured every 2 days by H and E staining based analysis; type: organism-based; settings: in vivo, 48 h, dose 500-2000 mg/kg, time 2 day
# [14] = test system: Quadruplex DNA; test: Binding affinity to c-MET G4-quadruplex DNA (unknown origin) assessed as change in melting temperature
# [15] = test system: NCI-H1975; test: Downregulation of c-Met expression in human NCI-H1975 cells incubated for 72 hrs by Western blot analysis; type: functional, cell-based; settings: dose <= 1000.0 nM
# [16] = Toxicity in BALB/c mouse xenografted with human A549 cells assessed as body weight loss at 20 mg/kg, po administered once a day and measured after 20 days; type: organism-based; settings: in vivo, 480 h, time 20 day
# [17] = test system: A549; test: Induction of apoptosis in human A549 cells assessed as necrotic cells at 0.5 uM incubated for 24 hrs by Annexin V-FITC/PI staining based flow cytometry analysis (reference value: 4.37 %); type: functional
# [18] = Toxicity in BALB/c mouse xenografted with human A549 cells assessed as heart damage at 20 mg/kg, po administered once a day and measured after 20 days by H and E staining based analysis; type: organism-based; settings: in vivo, 480 h, time 20 day
# [19] = test system: A549; test: Antitumor activity against human A549 cells xenografted in BALB/c mouse assessed as tumor growth inhibition at 40 mg/kg, po administered once a day and measured up to 24 days; type: functional; settings: A549, 576 h, time <= 24 day, read-out: TGI
# [20] = test system: A549; test: Induction of apoptosis in human A549 cells assessed as viable cells at 0.5 uM incubated for 24 hrs by Annexin V-FITC/PI staining based flow cytometry analysis (reference value: 91.3%); type: functional; settings: read-out: Activity
# [21] = test system: NCI-H1975; test: Inhibition of cell migration in human NCI-H1975 cells incubated for 12 hrs by crystal violet staining based analysis; type: functional; settings: dose 0.5-2 µM
# [22] = test system: A549; test: Induction of cell cycle arrest in human A549 cells assessed as accumulation of cells at G1 phase at 0.5 uM measured for 24 hrs by PI/Rnase staining based flow cytometry (reference value: 75.2 %); type: functional
# [23] = test system: A549; test: Induction of apoptosis in human A549 cells assessed as viable cells at 1 uM incubated for 24 hrs by Annexin V-FITC/PI staining based flow cytometry analysis (reference value: 91.3%); type: functional; settings: read-out: Activity
# [24] = test system: A549; test: Induction of apoptosis in human A549 cells assessed as late apoptotic cells at 2 uM incubated for 24 hrs by Annexin V-FITC/PI staining based flow cytometry analysis (reference value: 2.56 %); type: functional
# [25] = test system: NCI-H1975; test: Induction of apoptosis in human NCI-H1975 cells assessed as necrotic cells at 1 uM incubated for 24 hrs by Annexin V-FITC/PI staining based flow cytometry analysis (reference value: 7.33 %); type: functional
# [26] = test system: A549; test: Induction of apoptosis in human A549 cells assessed as viable cells at 2 uM incubated for 24 hrs by Annexin V-FITC/PI staining based flow cytometry analysis (reference value: 91.3%); type: functional; settings: read-out: Activity
# [27] = Toxicity in BALB/c mouse xenografted with human A549 cells assessed as kidney damage at 20 mg/kg, po administered once a day and measured after 20 days by H and E staining based analysis; type: organism-based; settings: in vivo, 480 h, time 20 day
# [28] = test system: A549; test: Antitumor activity against human A549 cells xenografted in BALB/c mouse assessed as tumor growth inhibition at 20 mg/kg, ip administered once a day and measured up to 24 days; type: functional; settings: A549, 576 h, time <= 24 day, read-out: TGI
# [29] = test system: A549; test: Antiproliferative activity against MET knockdown human A549 cells assessed as inhibition of cell growth by CCK-8 assay; type: functional, cell-based
# [30] = test system: NCI-H1975; test: Induction of apoptosis in human NCI-H1975 cells assessed as viable cells at 0.5 uM incubated for 24 hrs by Annexin V-FITC/PI staining based flow cytometry analysis (reference value: 90.1 %); type: functional; settings: read-out: Activity
# [31] = test system: A549; test: Induction of apoptosis in human A549 cells assessed as early apoptotic cells at 1 uM incubated for 24 hrs by Annexin V-FITC/PI staining based flow cytometry analysis (reference value: 1.73 %); type: functional
# [32] = test system: NCI-H1975; test: Induction of cell cycle arrest in human NCI-H1975 cells assessed as accumulation of cells at G2 phase at 1 uM measured for 24 hrs by PI/Rnase staining based flow cytometry (reference value: 14.8 %); type: functional
# [33] = test system: NCI-H1975; test: Downregulation of c-Met mRNA expression in human NCI-H1975 cells at 0.5 to 1 uM incubated for 24 hrs by qRT-PCR analysis; type: functional, cell-based; settings: dose 0.5-1 µM
# [34] = test system: A549; test: Downregulation of c-Met mRNA expression in human A549 cells at 0.5 to 1 uM incubated for 24 hrs by qRT-PCR analysis; type: functional, cell-based; settings: dose 0.5-1 µM
# [35] = Toxicity in BALB/c mouse xenografted with human A549 cells assessed as kidney damage at 40 mg/kg, po administered once a day and measured after 20 days by H and E staining based analysis; type: organism-based; settings: in vivo, 480 h, time 20 day
structure (smiles),measurement,setting,value
COc1cccc(-c2ccc(-c3nc4c5cccnc5c5ncccc5c4[nH]3)o2)c1,Activity,[1],8.12%
same,pIC50,[2],5.77
same,viability at 1 µM,[3],83.6%
same,Activity,[4],3.94%
same,inhibition,[5],Dose-dependent-effect
same,viability at 2 µM,[6],79.7%
same,Activity,[7],Active
same,Activity,[8],Non-toxic
same,Activity,[9],83.9%
same,Activity,[10],Dose-dependent-effect
same,Activity,[11],84.2%
same,Activity,[12],77.2%
same,Activity,[13],Non-toxic
same,ΔTm,[14],10.8 °C
same,Activity,[15],Dose-dependent-effect
same,Activity,[16],Non-toxic
same,Activity,[17],3.79%
same,Activity,[18],Non-toxic
same,inhibition in vivo at 40 mg/kg,[19],62.4%
same,viability at 0.5 µM,[20],83.2%
same,inhibition,[21],Dose-dependent-effect
same,Activity,[22],75.4%
same,viability at 1 µM,[23],74%
same,Activity,[24],23.5%
same,Activity,[25],4.06%
same,viability at 2 µM,[26],57.4%
same,Activity,[27],Non-toxic
same,inhibition in vivo at 20 mg/kg,[28],55.6%
same,Activity,[29],Active
same,viability at 0.5 µM,[30],85.1%
same,Activity,[31],6.47%
same,Activity,[32],11.5%
same,Activity,[33],Active
same,Activity,[34],Active
same,Activity,[35],Non-toxic
